The values below come from US9737478B2, “Treatment of malaria” (National Institutes of Health (NIH), U.S. Dept. of Health …, priority 2009, dated 2017).

In assay [1] the test system is Plasmodium berghei ANKA (PbA). The assay is described as follows: Treatment of PbA-infected mice presenting clinical cerebral malaria (survival, motor score, parasitemia). It counts as in vivo, C57B1/6 mice. As to conditions: for survival: mice with CM.
Description: Eight to 10-week old C57B1/6 mice (Jackson Laboratories, ME) were inoculated intraperitoneally with 1×10^6 Plasmodium berghei ANKA (PbA) parasites expressing the GFP protein (obtained from MR4-NIH, deposited by C J Anders and A Waters). Parasitemia, body weight and rectal temperature were checked daily from day 4. […] Five tests were performed: transfer arousal, locomotor activity, tail elevation, wire maneuver and righting reflex. For each test, mice received an individual score, and the sum of scores was used to create a composite score.
PbA-infected mice presenting poor righting reflex, hypothermia and/or other clinical signs of neurological involvement such as ataxia, limb paralysis, seizures and/or roll-over were treated with artemether (Artesiane, Dafra Pharma, Belgium, a kind gift of Dr Alberto Moreno, Emory University, Atlanta, Ga.) given IP at 50 mg/kg, in combination with nimodipine (Sigma, St Louis, Mo.) or vehicle (ethanol:polyethyleneglycol (PEG) 400:saline in 1:1:8 v/v). Nimodipine was dissolved in ethanol (EMD, N.J.), dispersed with polyethyleneglycol 400 (PEG, Sigma) and then saline was added (1:1:8 v/v) and mixed thoroughly. This solution was administered intraperitoneally in three different doses: 1.3 mg/kg, 4 mg/kg and 12 mg/kg. […] Parasitemia, motor behavior and rectal temperature were checked at each timepoint and daily afterwards. After treatment, parasitemia was checked by microscopical examination of Giemsa-stained blood smears to differentiate viable from dead parasites.
The test system of assay [2] is PbA-infected mice with clinical CM. The assay is described as follows: Intravital microscopy of pial vessels (closed cranial window) in PbA-infected mice with clinical CM. It counts as in vivo. The settings on record: nimodipine 4 mg/kg IP, 30 minutes after injection.
Excerpt: Briefly, mice were anesthetized with ketamine-xylazine, the head held on a stereotaxic frame, the scalp cut off and a 3-4 mm diameter skull opening was made in the left parietal bone using a surgical drill. The exposed area was covered with a 5 mm glass cover slip glued with dental acrylic. Carprofen and ampicillin were given for 3-5 days to prevent pain, inflammation and infection. Two weeks after surgery, mice were lightly anesthetized with isoflurane (4% for induction, 1-2% for maintenance) and held on a stereotaxic frame. A panoramic picture of the window was taken and then mice were transferred to an intravital microscope stage (customized McBain, San Diego, Calif.). Body temperature was maintained using a heating pad. […] Measurements of 6-10 pial venules (diameter range: 22-80 μm, velocity range: 2-4 mm/s) and 2-6 pial arterioles (diameter range: 18-70 μm, velocity range: 3-6 mm/s) were performed in each animal, and blood flow (Q) in each individual vessel was calculated using the equation: Q=V×(D/2)2.
The next day mice were inoculated intraperitoneally with 1×10^6 PbA-GFP pRBC. The intravital microscopy procedure was repeated daily from day 4 of infection until the mice died or were euthanized. Non-infected control mice were submitted to the same procedures. […]

Regarding `CO[C@H]1O[C@@H]2O[C@@]3(C)CC[C@H]4[C@H](C)CC[C@@H]([C@H]1C)[C@@]24OO3` [artemether], the survival in assay [1] (artemether 50 mg/kg IP daily for 5 days plus vehicle) was 32.2%. Also, in assay [1] (vehicle-treated group (artemether plus vehicle)), the “deaths occurring in the first 36 hours” value is 95.2%.
`COCCOC(=O)C1=C(C)NC(C)=C(C(=O)OC(C)C)C1c1cccc([N+](=O)[O-])c1` (stereo not shown) [nimodipine]: the “increase in arteriolar blood flow” value in assay [2] is “about 50%”. Also, in assay [1] (adjunctive nimodipine at 4 and 12 mg/kg IP at 0, 12, 24, 36 h with artemether 50 mg/kg IP daily for 5 days), the survival is 60-66.6%.
